{"source": "patent US7078386B2", "about": "“Enhancing agent for nerve growth factor production comprising a compound having a coumarin backbone or a compound having a 2-dimethyl chroman backbone” (Takara Bio, Inc., priority 2001, dated 2006)", "key": {"[1]": {"tested_on": "rat", "experiment": "Single-dose oral administration toxicity in rat", "type": "in vivo", "conditions": "orally administered, single dose at 1 g/kg of the body weight", "experimental": "No toxicity is found when the above-mentioned effective ingredient usable in the present invention is administered in an amount effective for the exhibition of its action. […] Also, incidence of adverse actions is not found."}, "[2]": {"tested_on": "L-M cells (ATCC CCL-1.2) from murine fibroblasts", "experiment": "Enhancing activity for NGF production: NGF concentration in culture medium by enzyme immunoassay", "type": "cell-based", "conditions": "20 hours culture", "experimental": "(2) The enhancing activity for NGF production was determined for the fraction 10 derived from root portions of Angelica keiskei koidz., of which structure was identified in item (1) of Example 1. L-M cells (ATCC CCL-1.2) from murine fibroblasts were suspended in an M199 medium (manufactured by ICN) containing 0.5% bactopeptone (manufactured by Gibco) so as to have a concentration of 1.5×10^5 cells/ml. The suspension was put in a 96 well plate in an amount of 0.1 ml each well, and the cells were aseptically cultured. After culturing the cells for 3 days, the medium was removed therefrom, and exchanged with an M199 medium containing 0.5% bovine serum albumin (manufactured by Sigma). The fraction 10 derived from root portions of Angelica keiskei koidz. was added as the sample thereto, and the cells were cultured for 20 hours. After the termination of the culture, the concentration of the NGF in the culture medium was assayed by an enzyme immunoassay method (NGF Emax Immuno Assay System, manufactured by Promega). The NGF concentration when added was expressed, assuming that the NGF concentration in the cell culture medium with no addition of the sample is 100%, whereby the enhancing activity for NGF production of the sample was evaluated. The experiment was carried out twice, and an average value was taken. As a result, it was clarified that the fraction 10 derived from root portions of Angelica keiskei koidz., namely 3′-O-β-D-glucopyranoyl khellactone, has an enhancing activity for NGF production."}}, "data": [{"smiles": "COc1ccc(C(=O)C=Cc2ccc(O)cc2)c2c1CC(O)C(C)(C)O2", "note": "(stereo not drawn) [3-hydroxy-8-[3-(4-hydroxyphenyl)-acryloyl]-5-methoxy-2-dimethyl chroman]", "values": [{"measurement": "cases of death", "setting": "[1]", "value": "no cases of death"}, {"measurement": "Amount of NGF Produced", "setting": "[2]; Table 6, sample 200 μM, no-sample control = 100% (0.668 ng/ml)", "value": 457.7, "unit": "%"}]}, {"smiles": "CC1(C)Oc2ccc3ccc(=O)oc3c2C(O)C1OC1OC(CO)C(O)C(O)C1O", "note": "[Fraction 10, 3′-O-β-D-glucopyranoyl khellactone]", "values": [{"measurement": "Amount of NGF Produced", "setting": "[2]; Table 1, sample 2.00 mg/ml, no-sample control = 100% (0.382 ng/ml)", "value": 565.5, "unit": "%"}]}, {"smiles": "CC(C)=CCc1c(OC2OC(CO)C(O)C(O)C2O)ccc2ccc(=O)oc12", "note": "[Fraction 13-2, 7-O-β-D-glucopyranosyloxy-8-prenyl coumarin]", "values": [{"measurement": "Amount of NGF Produced", "setting": "[2]; Table 2, sample 1.00 mg/ml, no-sample control = 100% (0.053 ng/ml)", "value": 792.1, "unit": "%"}]}, {"smiles": "COc1ccc(C(=O)O)c2c1CC(O)C(C)(C)O2", "note": "(stereo not drawn) [Fraction 18-4, 8-carboxyl-3-hydroxy-5-methoxy-2-dimethyl chroman]", "values": [{"measurement": "cases of death", "setting": "[1]", "value": "no cases of death"}, {"measurement": "Amount of NGF Produced", "setting": "[2]; Table 3, sample 0.0375 mg/ml, no-sample control = 100% (0.027 ng/ml)", "value": 2510.4, "unit": "%"}]}, {"smiles": "CC(C)=CCc1cc2ccc(=O)oc2cc1O[C@@H]1O[C@H](CO)[C@@H](O)[C@H](O)[C@H]1O", "note": "[Fraction 19/20-5, 7-β-D-glucopyranosyloxy-6-prenyl coumarin]", "values": [{"measurement": "Amount of NGF Produced", "setting": "[2]; Table 4, sample 1.00 mg/ml, no-sample control = 100% (0.063 ng/ml)", "value": 487.9, "unit": "%"}]}, {"smiles": "C/C=C(/C)C(=O)OC1c2c(ccc3ccc(=O)oc23)OC(C)(C)C1O[C@@H]1O[C@H](CO[C@@H]2O[C@H](CO)[C@@H](O)[C@H](O)[C@H]2O)[C@@H](O)[C@H](O)[C@H]1O", "note": "(stereo partly drawn) [Fraction 19/20-6, 4′-O-angeloyl-3′-O-[6-O-(β-D-glucopyranosyl)-β-D-glucopyranosyl]-khellactone]", "values": [{"measurement": "cases of death", "setting": "[1]", "value": "no cases of death"}, {"measurement": "Amount of NGF Produced", "setting": "[2]; Table 5, sample 1.00 mg/ml, no-sample control = 100% (0.063 ng/ml)", "value": 337.7, "unit": "%"}]}]}
